# Test results: a melting point compilation (Tetko et al.; mined from patent text by program, amines drawn as free bases though some values may be those of a salt)
row,Structure (SMILES),melting point [°C]
1,OCC1OC(n2cnc3c(NCC(c4ccccc4)c4cccc(Cl)c4)ncnc32)C(O)C1O (stereo unspecified),107 to 110
2,C#CCOCCOC(=O)COc1ccc(Cl)c2cccnc12,53
3,O=C(O)c1nc(C2CC2)nc(Cl)c1Cl,126 to 127
4,NCCCn1ccc2cc(NC(=O)c3nc4ccc(Cl)cc4n3Cc3ccccc3)ccc21,106 to 108
5,COC1CC2(C)C(CCC3C4CCC(C(C)=O)C4(C)CC(=O)C32)CC1O (stereo unspecified),163 to 164
6,O=C(NC1CN2CCC1CC2)C(O)(c1cccs1)c1cccs1 (stereo unspecified),169
7,CCOC(=O)C(=CNc1ccc(F)c(F)c1OCC(C)OS(=O)(=O)c1ccc(C)cc1)C(=O)OCC (stereo unspecified),61 to 62
8,CC(C)(C)OC(=O)Nc1cc(Br)cc(C(F)(F)F)c1,113 to 115
9,Nc1nc(O)c2c(n1)NCC(CCc1nc(C(=O)N[C@@H](CCC(=O)O)C(=O)O)c[nH]1)C2 (stereo partly specified),> 260
10,Fc1ccc(C(CCCN2CCC(c3nn(-c4ccccc4)c4cc(F)ccc34)CC2)c2ccc(F)cc2)cc1,113 to 115
11,CSc1nccn1CC(=O)NC1C(=O)N2C(C(=O)O)=C(COC(C)=O)CSC12 (stereo unspecified),245 to 247
12,Cc1nnc(-c2ccc3occ(-c4ccc(S(C)=O)cc4)c3n2)o1 (stereo unspecified),219 to 220
13,Cn1c(=O)nc(-c2ccccc2Cl)c2cc(Cl)sc21,164 to 166
14,O=C(O)c1cn(C2CC2)c2c(F)c(N3CC4CC3CN4Cc3ccc([N+](=O)[O-])cc3)c(F)cc2c1=O (stereo unspecified),177 to 182
15,O=C(O)c1cn(C2CC2)c2cc(N3CCC(c4ccccn4)C3)c(F)cc2c1=O (stereo unspecified),216 to 219
16,CCOC(=O)c1cn(-c2nc(N)c(Cl)cc2F)c2c(Cl)c(F)c(F)cc2c1=O,186 to 189
17,O=C(NC(Cc1ccccc1Cl)C(=O)N1CCSC1)c1cc2cc(Cl)ccc2[nH]1 (stereo unspecified),214 to 216
18,COc1ccc2sc(C(N)=O)c(SCC(=O)O)c2c1,126 to 127
19,CN(C)c1ccc2nc(N)c(C#N)c(Cl)c2c1,285
20,CC(O)CCCOc1ccc2nc3[nH]c(=O)[nH]c3cc2c1 (stereo unspecified),301 to 303
21,COC(=O)/C=C/c1cccc(Br)c1,53 to 55
22,CC1CCC(=O)N1c1ccnc(NC(=O)NCc2ccccn2)c1 (stereo unspecified),155 to 160
23,COC(=O)C1CN(C(=O)C2=Cc3cc(OC)c(OC)cc3CCC2)CCN1 (stereo unspecified),103 to 104

row,Structure (SMILES),melting point [°C]
1,COc1ccc(C(NCCCc2ccccc2)c2cccc(Nc3c(N)c(=O)c3=O)c2)cc1 (stereo unspecified),178 to 180
2,C[C@@H]1C[C@H](C)CN(C(=O)[C@@H]2Cc3cc(Br)ccc3N2c2ncccn2)C1,142 to 144
3,Cc1c(CC(C)(C)C(=O)O)n(Cc2ccc(Cl)cc2)c2ccc(OCc3ccc4ccccc4c3)cc12,152
4,Cc1c(CO)cccc1NC(=O)CC12CC3CC(CC(C3)C1)C2,205 to 206
5,CCOc1cc(-c2cc(C(F)(F)F)n3cnc(-c4ccncc4)c3n2)ccc1C(F)(F)F,212
6,Clc1ccc(-c2csc(NCc3cnc(NCc4ccccc4)s3)n2)cc1,105 to 106
7,Cc1c(C)n(Cc2ccccc2)c(=O)n(CCCCl)c1=O,72 to 74
8,COc1cccc2c1CCC1C(=O)OC(=O)C21 (stereo unspecified),138 to 140
9,CNc1nc(-c2ccc(O)c(F)c2)cc2c(OC)cccc12,185 to 187
10,CC1=C(C(=O)OC(C)(C)C)C(c2cc(Cl)ccc2Cl)C(C(=O)OC(C)(C)C)=C(C)N1,181 to 183
11,CSc1ccc2cc[nH]c2c1,91 to 92
12,Cc1cccc2[nH]c(=O)n(CCCN3CC=C(c4ccc(Cl)cc4)CC3)c(=O)c12,175 to 178
13,Cc1ccc(S(=O)(=O)OCCCCCCCCCOc2cccc(C(N)=O)c2)cc1,78 to 80
14,COc1ccc2cnc(N)nc2c1C1CCCC1,181 to 183
15,CN1CCN(c2ccc(C#N)nn2)CC1,149
16,COc1ccc(NC(=O)[C@H]2[C@H](c3ccc(S(N)(=O)=O)cc3)C23CCCC3)c(OC)n1 (relative stereo),112 to 115
17,Cc1c(NC(=O)CC(C)(C)C)c(C)c2c(c1C(C)O)OCC2c1ccc(C(C)C)cc1 (stereo unspecified),156 to 157
18,C=CCc1cc(C(=O)c2ccccc2)c(O)cc1OCCCCC#N,60 to 62
19,COc1cc2c(cc1OC)CCCC(C(=O)N1CCN(Cc3cc(OC)c(OC)c(OC)c3)CC1CCCO)=C2 (stereo unspecified),144 to 145
20,O=C(NCc1ccccc1)c1ccnc(NC(=O)c2ccc(OC(F)(F)F)cc2)c1,151 to 153
21,O=C(C1=Cc2ccccc2C1)c1ccc(OC(F)(F)F)cc1,115 to 117
22,Cc1noc(C)c1-c1cn(Cc2ccccc2)c(=O)c2ccccc12,139 to 141

# Next, values leading:
row,melting point [°C],Structure (SMILES)
1,160 to 162,CC(C)(C)OC(=O)NCc1cccc(-c2nc(=O)c3ccccc3s2)n1
2,> 280,COc1cc(-n2cc(C(=O)O)c(=O)c3cc(F)c(F)c(C)c32)ccc1F
3,144 to 150,CCCCNC(=O)NS(=O)(=O)Cc1c(C(=O)OC)cccc1[N+](=O)[O-]
4,54.9 to 55.8,COc1cccc(OC)c1C=CC(=O)c1ccccc1
5,120 to 122,CCOC(=O)C(N)c1c[nH]c2c(CC)cccc12 (stereo unspecified)
6,198 to 199,CS(=O)(=O)NC(=O)c1ccc(OCCn2ccnc2)cc1
7,86 to 88,COc1ccc2cc3c(Cl)nn(CCN(C)C)c3nc2c1
8,88 to 89,CCCc1c(OCCCOc2ccc(C#N)cc2Br)ccc(C(C)=O)c1O
9,118 to 119,CCC(O)(CC)C1(c2onc(-c3ccc(O)cc3)c2-c2ccccc2)CC1
10,175 to 178,COc1ccc(C(=O)Nc2ccc(F)cc2)cc1NC(=S)Nc1cc(Cl)cc(Cl)c1
11,61 to 62,CCOC(=O)c1c(C)cc(O)c(C(=O)OCC)c1O
12,135 to 137,O=C(O)CCCN(C(=O)c1ccc(Cl)cc1)c1ccccc1-c1ccccc1
13,125 to 127,CC(C#CC1CC(Oc2ccc(F)cc2)C1)N(O)C(N)=O (stereo unspecified)
14,142 to 144,CNC(=O)n1nc(Oc2ccc([N+](=O)[O-])cc2C(F)(F)F)cc1C
15,219 to 221,Cn1cc(C2=C(c3cn(CCCN=C=S)c4ccccc34)C(=O)NC2=O)c2ccccc21
16,186 to 188,Cc1c(C(=O)O)c(CC(=O)O)n(C)c1C(=O)c1cccnc1
17,155 to 157,O=C1c2ccccc2C(=O)N1Cc1noc(-c2ncn3c2[C@@H]2CCN2C(=O)c2sccc2-3)n1
18,106 to 107,COc1cccc(NC(=O)c2ccccc2C(c2ccc(O)cc2)c2ccc(O)cc2)c1
19,42 to 43,CCCCCCCCCCCCCCCCOCC(CO)OCCCCCCCCCCCCCC (stereo unspecified)

row,melting point [°C],Structure (SMILES)
1,160,OC1CSC(Oc2cccc3ccoc23)C(O)C1O (stereo unspecified)
2,178,Cc1c(Cl)cccc1S(=O)(=O)Nc1nc(C(C)(C)C)cs1
3,192 to 193,O=c1[nH][nH]c(=O)n1CCCl
4,162,ClCCCOc1cc(Cl)c(OCCCCl)cc1Cl
5,250 to 253,CCn1c(=O)c(C(=O)NCCO)c(NCCO)c2cnc(-c3ccccc3)nc21
6,128 to 129,O=C(Nc1ccc(Cl)cc1)C(Cl)CCl (stereo unspecified)
7,228 to 229,COc1ccc2cnc(Nc3ccc(N4CCNCC4)c(F)c3)nc2c1C1CCCC1
8,> 270,CCn1c(=O)c2[nH]c(/C=C/c3ccc(OC)c(F)c3)nc2n(CC)c1=O
9,66,CCC1=Nc2ccccc2CC(c2ccc(C)s2)N1C (stereo unspecified)
10,280 to 284,O=C(Nc1ccc(F)cc1)c1nnc2ccccc2c1O
11,170 to 172,COCCCNc1nc(N)c(C(=O)c2ccccc2[N+](=O)[O-])s1
12,82.1,CCC(C#N)(COc1ccc(Cl)cc1)c1cccnc1 (stereo unspecified)
13,212 to 216,N#Cc1ccc(Oc2cc3c(cc2Cl)C=C(C(=O)O)C(C(F)(F)F)O3)cc1 (stereo unspecified)
14,81 to 82,O=C1CCCc2ccccc2N1Cc1cccc(Br)c1
15,154 to 157,Cc1cccc(COc2cccc(OCc3ccc4ccccc4n3)c2)c1OCC(=O)O
16,234,O=C1NC(=O)C(c2c[nH]c3ccccc23)=C1c1c[nH]c2ccccc12
17,119 to 120,O=C(O)Cc1cc(Cl)c(Cl)cc1[N+](=O)[O-]
18,84 to 88,CCCCCCCCCCCCCCCCCCS(=O)(=O)c1cc2ccccc2c(N)c1O
19,158 to 159,CCOC(=O)Cc1csc(NC(=O)NC)n1

row,melting point [°C],Structure (SMILES)
1,135 to 140,CCOC(=O)c1cn(Cc2ccccc2)c2cc(C(C)C)nn2c1=O
2,143 to 145,CCOC(=O)c1nc(-c2nccs2)cs1
3,122 to 126,CC(C#Cc1cccc(C=Cc2ccccn2)c1)N(O)C(N)=O (stereo unspecified)
4,115 to 116,COc1cc(OC)c2nccc(Cl)c2c1
5,154 to 155,OCC1OC(n2c(Cl)nc3cc(Br)ccc32)C(O)C1O (stereo unspecified)
6,124 to 127,Fc1ccc(-c2nnc(Cl)cc2Cl)cc1
7,59 to 61,CCCCc1ccc(/C(Cl)=C/c2ccc(Br)cc2)cc1
8,139 to 142,O=C1NC(=O)C(Cc2ccc(OCC3CN(c4ccccn4)CCO3)cc2)S1 (stereo unspecified)
9,137 to 138,COc1ccc(S(=O)(=O)C(c2cnc(C(=O)NCCO)cc2C)c2cc(F)ccc2F)cc1F (stereo unspecified)
10,79 to 81,Cc1c(CO)ncnc1N1CCCCC1
11,224,CC(C)Oc1nsc(NC(=O)C(C)C)c1C#N
12,60,CCOC(=O)NOC(=O)CCCCC(=O)ONC(=O)OCC
13,147 to 148,COc1cc(C(C)=O)ccc1OCCCN1CCC(C(O)(c2ccccc2)c2ccc(F)cc2)CC1 (stereo unspecified)
14,73,CCCc1oc2ccc([N+](=O)[O-])cc2c1C(=O)c1ccc(OC)cc1
15,197 to 198,Nc1nc(Cl)c(C2=NCCN2)c(Cl)n1
16,116 to 118,CN(CCOc1ccc(C(N)=O)cc1)CCc1ccc([N+](=O)[O-])cc1
17,258 to 260,Oc1c(F)cc2c(c1F)CC(n1cc[nH]c1=S)CC2 (stereo unspecified)
18,159 to 160,CCC(CC)(COc1cc(C)c2nc(C)nn2n1)CS(N)(=O)=O
